Results reported in patent US20080188478A1, “Compounds Useful In Therapy” (Pfizer Inc., priority 2005, published 2008).

Key:
human V1A receptor = human V1A receptor (Homo sapiens, UniProt P37288); experiment: V1A filter binding assay ([3H]-AVP binding to CHO-hV1A membranes); details: screen 1.0, Ki by Cheng-Prusoff equation
Experimental: 1.0 V1A Filter Binding Assay
Receptor binding assays were performed on cellular membranes prepared from CHO cells stably expressing the human V1A receptor, (CHO-hV1A). The CHO-hV1A cell line was kindly provided under a licensing agreement by Marc Thibonnier, Dept. of Medicine, Case Western Reserve University School of Medicine, Cleveland, Ohio. CHO-hV1A cells were routinely maintained at 37° C. in humidified atmosphere with 5% CO2 in DMEM/Hams F12 nutrient mix supplemented with 10% fetal bovine serum, 2 mM L-glutamine, 15 mM HEPES and 400 μg/ml G418. For bulk production of cell pellets, adherent CHO-hV1A cells were grown to confluency of 90-100% in 850 cm^2 roller bottles containing a medium of DMEM/Hams F12 Nutrient Mix supplemented with 10% fetal bovine serum, 2 mM L-glutamine and 15 mM HEPES. Confluent CHO-hV1A cells were washed with phosphate-buffered saline (PBS), harvested into ice cold PBS and centrifuged at 1,000 rpm. Cell pellets were stored at −80° C. until use. When required, the cell pellets were thawed on ice and homogenised in membrane preparation buffer consisting of 50 mM Tris-HCl, pH 7.4, 5 mM MgCl2 and supplemented with a protease inhibitor cocktail, (Roche). The cell homogenate was centrifuged at 1000 rpm, 10 min, 4° C. and the supernatant was removed and stored on ice. The remaining pellet was homogenised and centrifuged as before. The supernatants were pooled and centrifuged at 25,000×g for 30 min at 4° C. The pellet was resuspended in freezing buffer consisting of 50 mM Tris-HCl, pH 7.4, 5 mM MgCl2 and 20% glycerol and stored in small aliquots at −80° C. until use. Protein concentration was determined using Bradford reagent and BSA as a standard.
Protein linearity, followed by saturation binding studies were performed on each new batch of membrane. A membrane concentration was chosen that gave specific binding on the linear portion of the curve. Saturation binding studies were then performed using various concentrations of [^3H]-arginine vasopressin, [^3H]-AVP (0.05 nM-100 nM) and the Kd and Bmax were determined. […] The plates were sealed and counted on a TopCount Microplate Scintillation Counter (Packard Instruments). Non-specific binding (NSB) was determined using 1 μM unlabelled d(CH2)5Tyr(Me)AVP ([β-mercapto-β,β-cyclopentamethylenepropionyl, 0-Me-Tyr^2, Arg^8]-vasopressin) (βMCPVP), (Sigma). The radioligand binding data was analysed using a four parameter logistic equation with the min forced to 0%. […] Specific binding was calculated by subtracting the mean NSB cpm from the mean Total cpm. For test compounds the amount of ligand bound to the receptor was expressed as % bound=(sample cpm−mean NSB cpm)/specific binding cpm×100. […]

Chain of human V1A receptor (P37288 whole entry): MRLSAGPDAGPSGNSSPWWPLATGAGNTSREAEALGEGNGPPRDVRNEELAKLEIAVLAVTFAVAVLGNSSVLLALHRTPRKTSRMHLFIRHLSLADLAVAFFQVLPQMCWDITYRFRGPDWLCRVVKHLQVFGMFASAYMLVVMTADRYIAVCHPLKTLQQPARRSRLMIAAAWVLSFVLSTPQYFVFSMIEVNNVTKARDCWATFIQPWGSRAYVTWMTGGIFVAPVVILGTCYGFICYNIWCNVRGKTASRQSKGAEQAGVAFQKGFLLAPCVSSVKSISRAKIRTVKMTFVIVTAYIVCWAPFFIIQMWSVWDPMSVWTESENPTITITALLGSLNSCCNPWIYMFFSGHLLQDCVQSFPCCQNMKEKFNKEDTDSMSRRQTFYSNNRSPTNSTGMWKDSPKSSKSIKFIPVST

O=c1oc2cccnc2n1C1CCN(c2nnc(Cn3nccn3)n2-c2ccc(Cl)cc2)CC1 [Example 7, 3-{1-[4-(4-chlorophenyl)-5-(2H-1,2,3-triazol-2-ylmethyl)-4H-1,2,4-triazol-3-yl]piperidin-4-yl}[1,3]oxazolo[4,5-b]pyridin-2(3H)-one]
Ki (human V1A receptor): 1.1 nM

Cc1nnc(N2CCC(N3c4ccccc4N(C)S3(=O)=O)CC2)n1-c1ccc(Cl)cc1 [Example 18, 1-{1-[4-(4-Chlorophenyl)-5-methyl-4H-1,2,4-triazol-3-yl]piperidin-4-yl}-3-methyl-1,3-dihydro-2,1,3-benzothiadiazole 2,2-dioxide]
melting point: 210 to 212 °C

Cc1nnc(N2CCN(c3nsc4ccccc34)CC2)n1-c1ccc(Cl)cc1 [Example 20, 3-{4-[4-(4-Chlorophenyl)-5-methyl-4H-1,2,4-triazol-3-yl]piperazin-1-yl}-1,2-benzisothiazole]
Ki (human V1A receptor): 0.49 nM

FC(F)(F)c1nnc(N2CCN(c3nsc4ccccc34)CC2)n1-c1ccc(Cl)cc1 [Example 22, 3-{4-[4-(4-Chlorophenyl)-5-(trifluoromethyl)-4H-1,2,4-triazol-3-yl]piperazin-1-yl}-1,2-benzisothiazole]
Ki (human V1A receptor): 0.79 nM

Cc1nnc(C2CCN(c3noc4cccnc34)CC2)n1-c1ccc(Cl)cc1 [Example 29, 3-{4-[4-(4-Chlorophenyl)-5-methyl-4H-1,2,4-triazol-3-yl]piperidin-1-yl}isoxazolo[4,5-b]pyridine]
Ki (human V1A receptor): 1.04 nM
